# Reference: ChEMBL document CHEMBL1201862, “PubChem BioAssay data set” (2004)
# Structures can show the parent of a compound that is named as a salt. Calls of active or inactive are those of the source.
# Legend:
# [1] = target: Voltage-gated inwardly rectifying potassium channel KCNH2 (Homo sapiens, UniProt Q12809); conditions: Potency;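 further: confirmatory quantitative high-throughput screen measuring inhibition of hERG channel activity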
# CAAX prenyl protease 2 [2] = target: CAAX prenyl protease 2 (Homo sapiens, UniProt Q9Y256); test: human Rce1 protease inhibitors, dose response, biochemical, yeast membranes, quenched-peptide fluorescence, cherry-pick (AID 588849)
# CAAX prenyl protease 2 [3] = target: T1, CAAX prenyl protease 2 (Saccharomyces cerevisiae S288c, UniProt Q03530); type: biochemical
# T1 sequence (Q03530 whole entry): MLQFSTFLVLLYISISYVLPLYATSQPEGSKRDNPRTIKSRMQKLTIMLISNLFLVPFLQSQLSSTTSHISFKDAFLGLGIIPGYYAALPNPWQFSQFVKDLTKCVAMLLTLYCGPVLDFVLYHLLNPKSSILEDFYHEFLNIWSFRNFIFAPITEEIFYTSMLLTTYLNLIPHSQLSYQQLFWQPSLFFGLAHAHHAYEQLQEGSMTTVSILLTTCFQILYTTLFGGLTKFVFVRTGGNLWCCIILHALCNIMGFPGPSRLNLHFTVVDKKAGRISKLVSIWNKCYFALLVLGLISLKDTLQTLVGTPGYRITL
# Trypsin = Trypsin (Sus scrofa, UniProt P00761); test: porcine trypsin inhibitors, dose response, selectivity assay for Rce1 protease inhibitor project, biochemical, quenched peptide fluorescence, cherry-pick (AID 488789)
# Protein skinhead-1 = target: T2, Protein skinhead-1 (Caenorhabditis elegans, UniProt P34707); type: functional
# T2 sequence (P34707 whole entry): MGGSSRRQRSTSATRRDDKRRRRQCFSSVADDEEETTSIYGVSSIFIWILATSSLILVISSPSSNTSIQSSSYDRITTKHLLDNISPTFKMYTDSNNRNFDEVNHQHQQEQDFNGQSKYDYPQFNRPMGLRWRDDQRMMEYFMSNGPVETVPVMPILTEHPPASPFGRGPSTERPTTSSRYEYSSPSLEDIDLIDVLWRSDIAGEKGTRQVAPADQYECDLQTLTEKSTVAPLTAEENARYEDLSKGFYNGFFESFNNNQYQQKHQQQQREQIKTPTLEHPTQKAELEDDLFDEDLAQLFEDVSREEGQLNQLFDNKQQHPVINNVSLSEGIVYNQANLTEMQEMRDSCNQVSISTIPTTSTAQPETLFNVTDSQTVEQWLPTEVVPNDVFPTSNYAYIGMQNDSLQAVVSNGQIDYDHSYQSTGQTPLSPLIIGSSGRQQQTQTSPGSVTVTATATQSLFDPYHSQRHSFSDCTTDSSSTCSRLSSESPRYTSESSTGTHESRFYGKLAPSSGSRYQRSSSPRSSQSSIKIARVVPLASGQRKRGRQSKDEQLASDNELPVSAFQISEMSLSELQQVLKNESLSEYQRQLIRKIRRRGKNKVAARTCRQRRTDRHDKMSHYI
# Beta-galactosidase = Beta-galactosidase (Escherichia coli, UniProt Q8VNN2); test: PubChem AID 485352; type: functional
# [4] = target: T3, Type-1 angiotensin II receptor (Homo sapiens, UniProt P30556); test: AT1 receptor antagonists, dose response, selectivity assay for APJ receptor antagonist project, cell-based, uHTS hits (AID 463214); type: functional;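 further: antagonist potency against angiotensin II stimulated AT1 response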
# T3 sequence (P30556 whole entry): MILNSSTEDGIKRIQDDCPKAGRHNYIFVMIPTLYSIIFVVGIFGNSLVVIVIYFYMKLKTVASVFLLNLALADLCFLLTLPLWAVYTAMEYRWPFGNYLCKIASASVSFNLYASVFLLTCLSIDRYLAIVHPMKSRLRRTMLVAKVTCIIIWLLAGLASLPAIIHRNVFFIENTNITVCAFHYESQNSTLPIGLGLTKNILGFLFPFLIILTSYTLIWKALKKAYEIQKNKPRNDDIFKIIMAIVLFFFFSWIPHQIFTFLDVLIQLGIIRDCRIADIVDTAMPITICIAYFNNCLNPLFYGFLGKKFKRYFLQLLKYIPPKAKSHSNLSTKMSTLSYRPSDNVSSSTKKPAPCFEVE
# [5] = growth induction of Burl-1 ts yeast mutant, dose response, counter-screen for SUMOylation pathway inhibitor project, whole organism, S. cerevisiae, luminescence (AID 463199); type: functional
# Vero [6] = test: cells; type: functional, cell-based; conditions: Chlorocebus sabaeus
# [7] = target: Glucose-6-phosphate 1-dehydrogenase (Homo sapiens, UniProt P11413); test: human G6PD enzyme inhibitors, dose response, selectivity assay for P. falciparum G6PD inhibitor project, biochemical, fluorescence (AID 504792); type: functional
# [8] = cytotoxicity toward NIH3T3 fibroblasts, dose response, counter-screen, cell-based, ATP luminescence, mouse fibroblasts (AID 2010); type: functional;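 further: cells exposed to compound for about 90 hours before reading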
# [9] = inhibitors of intracellular T. cruzi replication, confirmation, NIH3T3 host cells, beta-gal luminescence (AID 2044); type: functional, cell-based;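 further: intracellular parasites grown in NIH/3T3 mouse fibroblasts as host cells; luminescent beta-galactosidase reporter signal from transgenic T. cruzi replicating inside host cells; inhibitors lower the luminescence signal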
# SUMO-activating enzyme = SUMO-activating enzyme (Homo sapiens, UniProt Q9UBT2); test: SUMOylation inhibitor hit validation, confirmation, SUMOylation inhibitor project, biochemical, AlphaScreen (AID 2018); type: functional
# CHO-K1 = test: (§1) Counterscreen for antagonists of the orexin 1 receptor (OX1R; HCRTR1): Homogeneous time resolved fluorescence (HTRF)-based cell-based dose response assay to identify antagonists of the parental CHO-K1 cell line. [Related pubchem assays (depositor defined):AID434989, AID435008, AID463079, AID485270, AID492963, AID492964, AID492965, AID493232, AID504699, AID504701]; type: functional; conditions: Cricetulus griseus
# [10] = as §1, with “Fluorescence-based” for “Homogeneous time resolved fluorescence (HTRF)-based”, “cell-based high throughput” for “cell-based”, “CHO” for “CHO-K1”; type: functional
# [11] = target: T4, Orexin/Hypocretin receptor type 1 (Homo sapiens, UniProt O43613); test: (§2) Fluorescence-based cell-based high throughput dose response assay for antagonists of the orexin 1 receptor (OX1R; HCRTR1). [Related pubchem assays (depositor defined):AID434989, AID435008, AID463079, AID485270, AID492963, AID492964, AID492965, AID493232, AID504717, AID504718]; type: functional
# T4 sequence (O43613 whole entry): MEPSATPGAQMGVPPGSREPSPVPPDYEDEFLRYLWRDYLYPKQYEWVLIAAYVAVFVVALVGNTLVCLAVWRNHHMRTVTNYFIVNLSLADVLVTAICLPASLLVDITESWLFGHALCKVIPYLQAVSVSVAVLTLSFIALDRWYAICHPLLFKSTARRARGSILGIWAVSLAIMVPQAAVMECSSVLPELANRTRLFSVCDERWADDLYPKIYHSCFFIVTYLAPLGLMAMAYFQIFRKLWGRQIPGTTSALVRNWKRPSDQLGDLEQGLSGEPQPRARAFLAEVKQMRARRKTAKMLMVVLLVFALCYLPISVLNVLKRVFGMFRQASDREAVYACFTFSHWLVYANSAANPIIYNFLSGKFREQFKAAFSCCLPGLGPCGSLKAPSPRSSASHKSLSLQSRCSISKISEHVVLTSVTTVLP
# [12] = target: T4, Orexin/Hypocretin receptor type 1; test: as §2, with “Homogeneous Time Resolved Fluorescence (HTRF)-based” for “Fluorescence-based”; type: functional
# Escherichia coli [13] = test: microbe, parasite or virus in culture
# [14] = target: T5, RNA-binding protein pos-1 (Caenorhabditis elegans, UniProt G5EF15); test: inhibitors of POS-1/mex-3 RNA binding, dose response, biochemical, fluorescence polarization (AID 1964);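 further: purified POS-1 fused to maltose binding protein made in E. coli; potency of compounds blocking POS-1 binding to fluorescent RNA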
# T5 sequence (G5EF15 whole entry): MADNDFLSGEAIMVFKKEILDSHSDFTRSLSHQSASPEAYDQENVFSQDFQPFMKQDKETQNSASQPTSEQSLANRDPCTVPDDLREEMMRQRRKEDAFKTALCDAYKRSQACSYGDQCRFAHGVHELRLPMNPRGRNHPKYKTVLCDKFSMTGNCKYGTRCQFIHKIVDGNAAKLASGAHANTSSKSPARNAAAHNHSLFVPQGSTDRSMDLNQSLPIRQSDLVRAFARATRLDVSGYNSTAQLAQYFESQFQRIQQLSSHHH
# [15] = target: T6, Zinc finger protein mex-5 (Caenorhabditis elegans, UniProt Q9XUB2); test: MEX-5/TCR-2 RNA interaction inhibitors, dose response, biochemical, C. elegans, fluorescence polarization (AID 1960)
# T6 sequence (Q9XUB2 whole entry): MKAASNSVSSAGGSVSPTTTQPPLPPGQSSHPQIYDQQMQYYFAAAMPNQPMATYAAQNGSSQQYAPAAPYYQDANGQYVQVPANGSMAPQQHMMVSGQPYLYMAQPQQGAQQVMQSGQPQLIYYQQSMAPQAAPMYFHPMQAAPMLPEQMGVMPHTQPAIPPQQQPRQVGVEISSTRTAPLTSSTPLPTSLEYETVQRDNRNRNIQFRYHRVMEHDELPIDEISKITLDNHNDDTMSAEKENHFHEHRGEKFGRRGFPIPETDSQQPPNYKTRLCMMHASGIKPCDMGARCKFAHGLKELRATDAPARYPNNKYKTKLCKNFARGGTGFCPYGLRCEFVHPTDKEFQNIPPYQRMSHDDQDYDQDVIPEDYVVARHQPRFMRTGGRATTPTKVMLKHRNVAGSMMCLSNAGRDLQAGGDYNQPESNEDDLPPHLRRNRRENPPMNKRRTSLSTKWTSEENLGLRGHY
# [16] = target: Dual specificity tyrosine-phosphorylation-regulated kinase 1A (Rattus norvegicus, UniProt Q63470); type: biochemical, Homo sapiens
# Nonstructural protein 1 = Nonstructural protein 1 (Influenza A virus, UniProt Q194T2); type: functional, Influenza A virus (A/California/07/2009(H1N1))
# [17] = cytotoxicity toward DRD oncogenic fibroblasts, dose response, cell-based, non-viral oncogenic, luminescence (AID 1934); type: functional; conditions: Homo sapiens
# [18] = C. albicans growth with fluconazole, confirmation, fluorescence, retest (AID 2467); type: functional, cell-based
# BJ [19] = test: cytotoxicity toward BJ-TERT-LT-ST fibroblasts, dose response, cell-based, RAS-independent, luminescence (AID 1935); type: functional; conditions: Homo sapiens;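 further: BJ fibroblasts immortalized with TERT plus LT and ST oncogenes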
# INS1 = test: beta cell apoptosis inhibitors, cytokine rescue, dose response, luminescence, retest (AID 449756); type: functional, cell-based; conditions: Rattus norvegicus;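 further: cell death triggered by IL-1 beta plus TNF-alpha plus IFN-gamma mixture; protective hits raise ATP signal compared with cytokine alone wells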
# BJ [20] = test: cytotoxicity toward BJ-TERT fibroblasts, dose response, cell-based, RAS-independent, luminescence (AID 1933); type: functional; conditions: Homo sapiens
# [21] = NIH-3T3 fibroblast cytotoxicity, dose response, cytotoxicity control, cell-based, fluorescence, Alamar Blue, secondary assay (AID 2327); type: functional;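 further: NIH-3T3 mouse fibroblasts cultured with fluconazole at 8 µg/mL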
# Vero [22] = test: cells; type: functional; conditions: Chlorocebus sabaeus
# BJ [23] = test: cells; type: functional, cell-based; conditions: Homo sapiens
# [24] = A cytotoxicity screen of small molecule inhibitors of the PhoP region in Salmonella typhi identified in the primary screen. [Related pubchem assays: 1850, 1864, 1985 ]; type: functional
# Escherichia coli [25] = test: microbe, parasite or virus in culture; remark: listed apart in the source
# Beta-galactosidase, sequence (Q8VNN2 whole entry): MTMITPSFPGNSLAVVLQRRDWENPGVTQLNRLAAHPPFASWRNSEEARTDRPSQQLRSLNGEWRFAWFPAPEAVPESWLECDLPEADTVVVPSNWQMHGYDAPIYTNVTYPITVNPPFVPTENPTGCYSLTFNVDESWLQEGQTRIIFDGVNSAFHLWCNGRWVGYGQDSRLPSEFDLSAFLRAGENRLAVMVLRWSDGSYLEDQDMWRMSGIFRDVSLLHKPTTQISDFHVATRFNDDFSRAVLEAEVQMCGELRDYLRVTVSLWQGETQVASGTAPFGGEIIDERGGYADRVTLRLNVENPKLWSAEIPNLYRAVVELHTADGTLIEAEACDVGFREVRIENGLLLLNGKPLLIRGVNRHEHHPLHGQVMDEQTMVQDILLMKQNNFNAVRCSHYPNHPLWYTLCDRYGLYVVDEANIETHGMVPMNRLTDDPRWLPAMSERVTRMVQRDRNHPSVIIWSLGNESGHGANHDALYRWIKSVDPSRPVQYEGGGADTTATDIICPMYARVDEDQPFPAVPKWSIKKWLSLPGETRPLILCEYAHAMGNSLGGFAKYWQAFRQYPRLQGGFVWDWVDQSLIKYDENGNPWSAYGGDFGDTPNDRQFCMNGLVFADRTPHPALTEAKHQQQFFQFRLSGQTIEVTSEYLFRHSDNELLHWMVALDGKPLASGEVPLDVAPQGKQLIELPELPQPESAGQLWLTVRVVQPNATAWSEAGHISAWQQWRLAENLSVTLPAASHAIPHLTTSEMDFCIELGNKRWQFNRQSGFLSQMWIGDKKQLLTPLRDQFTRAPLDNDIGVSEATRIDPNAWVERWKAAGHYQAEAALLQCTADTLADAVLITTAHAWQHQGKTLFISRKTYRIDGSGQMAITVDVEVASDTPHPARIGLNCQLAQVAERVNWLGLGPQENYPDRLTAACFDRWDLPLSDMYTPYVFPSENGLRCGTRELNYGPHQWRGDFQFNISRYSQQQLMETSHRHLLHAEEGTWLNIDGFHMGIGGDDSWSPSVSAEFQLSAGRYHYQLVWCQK
# Trypsin, sequence (P00761 whole entry): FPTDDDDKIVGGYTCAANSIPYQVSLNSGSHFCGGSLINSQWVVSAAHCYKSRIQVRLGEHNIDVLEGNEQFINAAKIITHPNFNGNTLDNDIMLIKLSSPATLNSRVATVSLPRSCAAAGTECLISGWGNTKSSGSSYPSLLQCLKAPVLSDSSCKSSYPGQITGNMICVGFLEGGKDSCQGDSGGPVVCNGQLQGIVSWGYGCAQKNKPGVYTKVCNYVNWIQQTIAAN
# CAAX prenyl protease 2 (Homo sapiens, UniProt Q9Y256), sequence (Q9Y256 whole entry): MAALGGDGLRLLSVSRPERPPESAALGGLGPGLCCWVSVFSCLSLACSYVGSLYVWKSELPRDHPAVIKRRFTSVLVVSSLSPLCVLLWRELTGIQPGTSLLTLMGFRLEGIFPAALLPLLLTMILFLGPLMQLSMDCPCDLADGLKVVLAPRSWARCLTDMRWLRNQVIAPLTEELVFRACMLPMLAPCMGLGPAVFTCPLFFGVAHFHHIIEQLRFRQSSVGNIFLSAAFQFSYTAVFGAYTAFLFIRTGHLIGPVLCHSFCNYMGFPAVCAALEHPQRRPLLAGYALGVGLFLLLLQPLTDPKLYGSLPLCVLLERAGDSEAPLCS
# Voltage-gated inwardly rectifying potassium channel KCNH2, sequence (Q12809 whole entry): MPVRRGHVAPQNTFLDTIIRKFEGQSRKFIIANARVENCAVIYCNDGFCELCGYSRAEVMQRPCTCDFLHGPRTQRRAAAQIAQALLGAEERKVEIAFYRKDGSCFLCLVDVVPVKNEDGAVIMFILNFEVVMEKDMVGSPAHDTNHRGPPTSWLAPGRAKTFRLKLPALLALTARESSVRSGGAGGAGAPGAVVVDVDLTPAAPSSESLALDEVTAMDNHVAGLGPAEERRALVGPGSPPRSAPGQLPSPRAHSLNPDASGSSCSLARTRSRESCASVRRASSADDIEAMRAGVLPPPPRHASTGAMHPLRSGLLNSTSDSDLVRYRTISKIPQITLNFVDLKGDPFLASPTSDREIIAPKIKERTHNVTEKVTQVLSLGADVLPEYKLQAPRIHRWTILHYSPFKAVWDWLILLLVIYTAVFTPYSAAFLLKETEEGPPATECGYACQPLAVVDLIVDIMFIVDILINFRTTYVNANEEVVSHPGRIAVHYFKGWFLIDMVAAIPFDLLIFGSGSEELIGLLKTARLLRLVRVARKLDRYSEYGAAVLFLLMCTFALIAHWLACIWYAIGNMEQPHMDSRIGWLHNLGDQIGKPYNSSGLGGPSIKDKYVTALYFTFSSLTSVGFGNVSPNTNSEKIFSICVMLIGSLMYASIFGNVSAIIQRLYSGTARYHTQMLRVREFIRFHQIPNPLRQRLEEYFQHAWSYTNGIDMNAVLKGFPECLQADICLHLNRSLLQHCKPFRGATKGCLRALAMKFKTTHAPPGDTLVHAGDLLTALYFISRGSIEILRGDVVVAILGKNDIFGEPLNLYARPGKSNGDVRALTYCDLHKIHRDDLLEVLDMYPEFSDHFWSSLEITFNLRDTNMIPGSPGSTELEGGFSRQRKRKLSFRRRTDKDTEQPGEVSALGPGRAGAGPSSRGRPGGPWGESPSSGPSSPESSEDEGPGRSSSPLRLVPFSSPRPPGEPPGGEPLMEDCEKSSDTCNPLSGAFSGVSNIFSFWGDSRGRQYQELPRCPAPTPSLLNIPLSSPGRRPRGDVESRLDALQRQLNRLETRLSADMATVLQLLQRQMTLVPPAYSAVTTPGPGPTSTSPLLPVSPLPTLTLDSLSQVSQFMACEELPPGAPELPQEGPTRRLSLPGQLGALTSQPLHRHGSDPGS
# SUMO-activating enzyme, sequence (Q9UBE0 whole entry): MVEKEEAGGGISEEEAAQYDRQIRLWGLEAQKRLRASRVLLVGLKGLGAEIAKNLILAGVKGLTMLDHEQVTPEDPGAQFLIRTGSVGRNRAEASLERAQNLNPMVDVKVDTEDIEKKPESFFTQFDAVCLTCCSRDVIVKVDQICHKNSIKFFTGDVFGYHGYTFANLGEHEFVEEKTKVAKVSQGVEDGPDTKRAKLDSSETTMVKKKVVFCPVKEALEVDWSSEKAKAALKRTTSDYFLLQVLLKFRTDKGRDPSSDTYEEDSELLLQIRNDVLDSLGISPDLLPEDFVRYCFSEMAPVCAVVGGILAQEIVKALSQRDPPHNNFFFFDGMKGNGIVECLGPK
# SUMO-activating enzyme, sequence (Q9UBT2 whole entry): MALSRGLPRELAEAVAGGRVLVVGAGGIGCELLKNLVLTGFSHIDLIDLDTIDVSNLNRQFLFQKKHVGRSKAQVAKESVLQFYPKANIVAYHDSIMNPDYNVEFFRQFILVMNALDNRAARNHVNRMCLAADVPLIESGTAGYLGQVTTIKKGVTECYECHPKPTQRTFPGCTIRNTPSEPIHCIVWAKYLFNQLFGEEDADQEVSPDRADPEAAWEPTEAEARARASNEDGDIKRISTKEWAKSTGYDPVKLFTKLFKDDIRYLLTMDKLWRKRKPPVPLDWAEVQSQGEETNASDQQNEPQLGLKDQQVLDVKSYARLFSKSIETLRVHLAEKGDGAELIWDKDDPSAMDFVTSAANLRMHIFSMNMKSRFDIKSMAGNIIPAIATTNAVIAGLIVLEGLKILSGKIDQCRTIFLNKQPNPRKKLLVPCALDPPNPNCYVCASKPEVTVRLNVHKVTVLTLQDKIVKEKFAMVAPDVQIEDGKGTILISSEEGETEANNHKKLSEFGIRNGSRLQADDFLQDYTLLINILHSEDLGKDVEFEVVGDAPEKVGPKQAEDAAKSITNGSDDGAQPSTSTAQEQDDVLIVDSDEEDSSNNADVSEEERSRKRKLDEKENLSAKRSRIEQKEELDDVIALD
# Glucose-6-phosphate 1-dehydrogenase, sequence (P11413 whole entry): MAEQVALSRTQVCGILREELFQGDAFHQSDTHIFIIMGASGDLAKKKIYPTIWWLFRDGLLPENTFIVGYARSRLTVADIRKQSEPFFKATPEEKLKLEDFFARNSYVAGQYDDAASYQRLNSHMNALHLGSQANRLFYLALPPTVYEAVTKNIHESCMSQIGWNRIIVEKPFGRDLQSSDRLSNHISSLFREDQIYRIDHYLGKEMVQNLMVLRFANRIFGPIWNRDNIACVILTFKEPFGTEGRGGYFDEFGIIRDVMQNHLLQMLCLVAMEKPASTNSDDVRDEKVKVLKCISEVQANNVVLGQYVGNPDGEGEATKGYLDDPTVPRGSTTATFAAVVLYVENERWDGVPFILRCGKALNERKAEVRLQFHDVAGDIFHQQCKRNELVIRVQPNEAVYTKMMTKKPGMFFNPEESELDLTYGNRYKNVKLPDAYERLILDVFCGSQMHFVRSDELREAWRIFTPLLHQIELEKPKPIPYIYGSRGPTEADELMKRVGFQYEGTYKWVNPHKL
# Nonstructural protein 1, sequence (Q194T2 whole entry): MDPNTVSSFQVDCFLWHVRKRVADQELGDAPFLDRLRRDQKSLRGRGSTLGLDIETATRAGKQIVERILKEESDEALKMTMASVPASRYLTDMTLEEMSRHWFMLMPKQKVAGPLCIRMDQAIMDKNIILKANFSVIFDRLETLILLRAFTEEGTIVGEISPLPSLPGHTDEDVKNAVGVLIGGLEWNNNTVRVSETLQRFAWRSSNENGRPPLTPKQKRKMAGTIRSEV
smiles,measurement,setting,value
CN1CCN(CC/C=C2/c3ccccc3Sc3ccc(S(=O)(=O)N(C)C)cc32)CC1,AC50,[1],2.51 µM (inconclusive)
COc1ccc(-n2nc(C(=O)NCC(=O)NCc3ccc(F)cc3)c3ccccc3c2=O)cc1,AC50,CAAX prenyl protease 2 [2],9.42 µM (active)
same,AC50,CAAX prenyl protease 2 [3],5.21 µM (active)
same,AC50,Trypsin,9.62 µM (active)
Cc1ccccc1NC(=O)CCC(=O)OCC(=O)c1cccc([N+](=O)[O-])c1,IC50,Protein skinhead-1,> 100 µM (inactive)
same,EC50,Beta-galactosidase,> 40 µM (inactive)
same,IC50,[4],33.6 µM (not active)
Cc1ccccc1-c1nnc(CN2CCC(C)CC2)o1,AC50,[5],46.9 µM (active)
Cc1ccc2[nH]c(CN3CCC(CO)(CC4CCCCO4)CC3)c(C)c2c1 (stereo unspecified),IC50,Vero [6],> 25 µM (active)
COc1ccc(OC)c(-c2cc(C(=O)Nc3c(C)nn(Cc4ccccc4Cl)c3C)no2)c1,AC50,[5],47.9 µM (active)
O=C(COC(=O)c1cccnc1Cl)c1ccc(Cl)cc1Cl,EC50,Beta-galactosidase,> 40 µM (inactive)
same,IC50,[4],35.4 µM (not active)
O=[N+]([O-])c1ccc(Sc2cccc3cccnc23)c2cccnc12,IC50,[7],> 80 µM (inactive)
same,EC50,[8],> 30 µM (not active)
same,EC50,[9],0.666 µM (active)
Cc1ccc(S(=O)(=O)Cc2cn3cccnc3n2)cc1,AC50,CAAX prenyl protease 2 [2],34.3 µM (active)
same,AC50,CAAX prenyl protease 2 [3],16.2 µM (active)
same,AC50,Trypsin,25.1 µM (active)
Cc1ccc2oc(-c3ccc(C)c(NC(=O)Cc4cccs4)c3)nc2c1,IC50,SUMO-activating enzyme,> 100 µM (inactive)
Cn1c2ccc(F)cc2c2nc3ccccc3nc21,IC50,CHO-K1,> 66.2 µM (inactive)
same,IC50,[10],> 49.7 µM (inactive)
same,IC50,[11],6.95 µM (active)
same,IC50,[12],1.17 µM (active)
CCc1nc2ccccc2c(C(=O)OC2CCOC2=O)c1C (stereo unspecified),AC50,Escherichia coli [13],42.9 µM (active)
Cc1c(C(=O)O)cccc1-n1c(C)cc(/C=N/Nc2ccc([N+](=O)[O-])cn2)c1C,EC50,[14],> 300 µM (not active)
same,EC50,[15],50.2 µM (active)
same,AC50,[16],6.79 µM (active)
C/C(=N\NC(=O)c1cc(-c2cccs2)nc2ccccc12)c1ccccn1,IC50,Nonstructural protein 1,4.52 µM (active)
same,IC50,Vero [6],> 25 µM (active)
same,EC50,[17],1.41 µM (active)
same,EC50,[18],1.19 µM (active)
same,EC50,BJ [19],1.14 µM (active)
same,AC50,INS1,0.366 µM (active)
same,EC50,BJ [20],1.3 µM (active)
same,EC50,[21],2.71 µM (inconclusive)
same,CC50,Vero [22],1.62 µM (active)
same,EC50,BJ [23],2.12 µM (active)
O=C1OCCN1/N=C/c1ccc([N+](=O)[O-])o1 [FURAZOLIDONE],EC50,[24],> 50 µM (active)
same,AC50,Escherichia coli [13],17.8 µM (active)
same,AC50,Escherichia coli [25],24.4 µM (active)
CCCN1CCC[C@@H]2Cc3n[nH]cc3C[C@H]21 [QUINPIROLE HYDROCHLORIDE],AC50,[1],11.2 µM (inconclusive)
